This is an account of results in US11142526B2, “Spirocycle compounds and methods of making and using same” (H. Lundbeck A/S, priority 2017, dated 2021).

The structures appear in SMILES notation. Like-named read-outs stand apart in the source and are kept apart here. Where only a bound is given, the exact number is not on record here.

In assay [1] the target is T1, MAGL (Mus musculus (Mouse), UniProt O35678). In words: In vitro competitive activity-based protein profiling, mouse brain proteome. The assay is classed as biochemical. The following applies: for inhibition at 1 µM: mouse; for IC50: mouse brain.
Assay [2] addresses MAGL (Homo sapiens (Human), UniProt Q99685). The assay can be described thus: In vitro competitive activity-based protein profiling (gel-based, FP-Rh or HT-01 probe). In kind it is biochemical. Here is the method: In Vitro Competitive Activity-Based Protein Profiling.
Proteomes (human prefrontal cortex or cell membrane fractions) (50 μL, 1.0 mg/mL total protein concentration) were preincubated with varying concentrations of inhibitors at 37° C. After 30 min, FP-Rh or HT-01 (1.0 μL, 50 μM in DMSO) was added and the mixture was incubated for another 30 min at room temperature. Reactions were quenched with SDS loading buffer (15 μL—4×) and run on SDS-PAGE.

The target of assay [3] is T1, MAGL. The assay can be described thus: Mouse brain proteomes from inhibitor treated mice (oral gavage, brain MAGL activity 4 h after administration). In kind it is in vivo. The following applies: 5 mg/kg oral gavage. The method, then:
Preparation of Mouse Brain Proteomes from Inhibitor Treated Mice.
Inhibitors were administered to wild-type C57B1/6J by oral gavage in a vehicle of polyethylene glycol.

Setting [4] is: human PC3, read-out: MAGL % Inhibition at 1 μM (human PC3).
[5] abbreviates: human PFC (prefrontal cortex), read-out: MAGL % Inhibition at 1 μM (human PFC).
[6] abbreviates: human PC3, read-out: MAGL Human PC3 (IC50).
[7] abbreviates: human PFC (prefrontal cortex), read-out: MAGL Human PFC (IC50).

T1 sequence (O35678 whole entry): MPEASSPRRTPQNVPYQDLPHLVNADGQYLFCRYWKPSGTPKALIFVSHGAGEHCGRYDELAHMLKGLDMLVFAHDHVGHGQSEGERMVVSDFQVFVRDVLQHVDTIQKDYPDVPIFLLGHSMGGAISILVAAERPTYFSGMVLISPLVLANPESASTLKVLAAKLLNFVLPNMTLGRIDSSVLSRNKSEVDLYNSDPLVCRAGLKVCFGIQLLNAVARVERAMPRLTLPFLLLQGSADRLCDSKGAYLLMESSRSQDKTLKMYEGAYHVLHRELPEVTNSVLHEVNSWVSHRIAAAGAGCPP
Chain of MAGL (Homo sapiens (Human), UniProt Q99685) (Q99685 whole entry): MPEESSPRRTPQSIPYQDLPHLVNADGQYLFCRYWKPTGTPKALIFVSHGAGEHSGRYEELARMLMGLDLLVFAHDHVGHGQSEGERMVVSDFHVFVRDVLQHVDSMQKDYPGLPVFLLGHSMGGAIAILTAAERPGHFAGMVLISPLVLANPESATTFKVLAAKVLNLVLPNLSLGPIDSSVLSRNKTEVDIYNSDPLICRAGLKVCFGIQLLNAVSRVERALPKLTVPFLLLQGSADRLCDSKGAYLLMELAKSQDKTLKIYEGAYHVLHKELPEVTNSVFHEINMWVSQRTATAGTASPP

The term inhibition denotes how much of the control response was suppressed. By IC50 is commonly meant the midpoint of a concentration-inhibition curve. As to `O=C(OC(C(F)(F)F)C(F)(F)F)N1CCC2(CCCN2C(=O)c2cn3c(n2)CN(C2CC2)CC3)CC1` [Example 2, 1,1,1,3,3,3-Hexafluoropropan-2-yl 1-(7-cyclopropyl-5,6,7,8-tetrahydroimidazo[1,2-a]pyrazine-2-carbonyl)-1,8-diazaspiro[4.5]decane-8-carboxylate], the inhibition at 1 µM on MAGL [1], at MAGL [2] (setting [4]) and at MAGL [2] (setting [5]) was > 75% in each case. Further, the IC50 at MAGL [1], on MAGL [2] (setting [6]) and at MAGL [2] (setting [7]) was < 100 nM in each case. On MAGL [3], the “MAGL % Inhibition at 5 mg/kg (Mouse)” value is on record as “### (% inhibition is greater than or equal to 75%)”.

`O=C(OC(C(F)(F)F)C(F)(F)F)N1CCC2(CCCN2C(=O)c2cncnc2N2CCCC2)CC1` [Example 5, 1,1,1,3,3,3-Hexafluoropropan-2-yl 1-(4-(pyrrolidin-1-yl)pyrimidine-5-carbonyl)-1,8-diazaspiro[4.5]decane-8-carboxylate]: the inhibition at 1 µM on MAGL [1] and on MAGL [2] (setting [5]) was > 75% each time. Moreover, the IC50 at MAGL [2] (setting [6]) and on MAGL [2] (setting [7]) was < 100 nM throughout. The “MAGL % Inhibition at 5 mg/kg (Mouse)” value at MAGL [3] was “### (% inhibition is greater than or equal to 75%)”.

`CN(C(=O)c1cn2c(n1)CN(C1CC1)CC2)C1(C)CCN(C(=O)OC(C(F)(F)F)C(F)(F)F)CC1` [Example 18, 1,1,1,3,3,3-Hexafluoropropan-2-yl 4-(7-cyclopropyl-N-methyl-5,6,7,8-tetrahydroimidazo[1,2-a]pyrazine-2-carboxamido)-4-methylpiperidine-1-carboxylate]: the inhibition at 1 µM on MAGL [1], on MAGL [2] (setting [4]) and at MAGL [2] (setting [5]) was > 75% each time. Moreover, the IC50 on MAGL [1] and at MAGL [2] (setting [6]) was < 100 nM throughout. Moreover, at MAGL [3], the “MAGL % Inhibition at 5 mg/kg (Mouse)” value is “### (% inhibition is greater than or equal to 75%)”.

Take `CN(C(=O)c1nnc2n1CCN(C1CC1)C2)C1(C)CCN(C(=O)OC(C(F)(F)F)C(F)(F)F)CC1` [Example 20, 1,1,1,3,3,3-hexafluoropropan-2-yl 4-(7-cyclopropyl-N-methyl-5,6,7,8-tetrahydro-[1,2,4]triazolo[4,3-a]pyrazine-3-carboxamido)-4-methylpiperidine-1-carboxylate]: the inhibition at 1 µM on MAGL [1], on MAGL [2] (setting [4]) and at MAGL [2] (setting [5]) was > 75% each time. Also, on MAGL [2] (setting [6]), the IC50 is < 100 nM. Also, on MAGL [3], the “MAGL % Inhibition at 5 mg/kg (Mouse)” value was “### (% inhibition is greater than or equal to 75%)”.

Consider `CC(C)(O)CN1CCn2cc(C(=O)N3CCCC34CCN(C(=O)OC(C(F)(F)F)C(F)(F)F)CC4)nc2C1` [Example 21, 1,1,1,3,3,3-Hexafluoropropan-2-yl 1-(7-(2-hydroxy-2-methylpropyl)-5,6,7,8-tetrahydroimidazo[1,2-a]pyrazine-2-carbonyl)-1,8-diazaspiro[4.5]decane-8-carboxylate], for which the inhibition at 1 µM on MAGL [1], on MAGL [2] (setting [4]) and at MAGL [2] (setting [5]) was > 75% in each case. At MAGL [2] (setting [6]), the IC50 is < 100 nM. For the same compound, on MAGL [3], the “MAGL % Inhibition at 5 mg/kg (Mouse)” value is listed as “# (% inhibition less or equal to 25%)”.

As to `CC1(NC(=O)c2cn3c(n2)CN(S(C)(=O)=O)CC3)CCN(C(=O)OC(C(F)(F)F)C(F)(F)F)CC1` [Example 27, 1,1,1,3,3,3-hexafluoropropan-2-yl 4-methyl-4-(7-(methylsulfonyl)-5,6,7,8-tetrahydroimidazo[1,2-a]pyrazine-2-carboxamido)piperidine-1-carboxylate], on MAGL [2] (setting [4]), the inhibition at 1 µM was > 75%. Further, on MAGL [2] (setting [6]), the IC50 is < 100 nM. For the same compound, the “MAGL % Inhibition at 5 mg/kg (Mouse)” value at MAGL [3] is listed as “# (% inhibition less or equal to 25%)”.

Consider `O=C(OC(C(F)(F)F)C(F)(F)F)N1CCC2(CCCN2C(=O)C2(c3ncc(Cl)cn3)CC2)CC1` [Example 31, 1,1,1,3,3,3-Hexafluoropropan-2-yl 1-(1-(5-chloropyrimidin-2-yl)cyclopropane-1-carbonyl)-1,8-diazaspiro[4.5]decane-8-carboxylate], for which the inhibition at 1 µM at MAGL [1], at MAGL [2] (setting [4]) and at MAGL [2] (setting [5]) was > 75% throughout. In addition, the IC50 on MAGL [2] (setting [6]) was < 100 nM. At MAGL [3], the “MAGL % Inhibition at 5 mg/kg (Mouse)” value is recorded as “### (% inhibition is greater than or equal to 75%)”.

As to `CC(C)C(=O)N1CCn2cc(C(=O)NC3(C)CCN(C(=O)OC(C(F)(F)F)C(F)(F)F)CC3)nc2C1` [Example 37, 1,1,1,3,3,3-Hexafluoropropan-2-yl 4-(7-isobutyryl-5,6,7,8-tetrahydroimidazo[1,2-a]pyrazine-2-carboxamido)-4-methylpiperidine-1-carboxylate], the inhibition at 1 µM on MAGL [1], at MAGL [2] (setting [4]) and at MAGL [2] (setting [5]) was > 75% throughout. Further, the IC50 on MAGL [2] (setting [6]) was < 100 nM. In addition, the “MAGL % Inhibition at 5 mg/kg (Mouse)” value on MAGL [3] is “# (% inhibition less or equal to 25%)”.

As for `O=C(OC(C(F)(F)F)C(F)(F)F)N1CCC2(CCCN2C(=O)C2(c3cnc(C4CC4)nc3)CC2)CC1` [Example 38, 1,1,1,3,3,3-Hexafluoropropan-2-yl 1-(1-(2-cyclopropylpyrimidin-5-yl)cyclopropane-1-carbonyl)-1,8-diazaspiro[4.5]decane-8-carboxylate], the inhibition at 1 µM at MAGL [1], on MAGL [2] (setting [4]) and on MAGL [2] (setting [5]) was > 75% in each case. Moreover, the IC50 on MAGL [2] (setting [6]) was < 100 nM. The “MAGL % Inhibition at 5 mg/kg (Mouse)” value on MAGL [3] is given as “### (% inhibition is greater than or equal to 75%)”.

`O=C(OC(C(F)(F)F)C(F)(F)F)N1CCC2(CCCN2Cc2cc(-c3ccc(F)cc3)on2)CC1` [Example 39, 1,1,1,3,3,3-Hexafluoropropan-2-yl 1-((5-(4-fluorophenyl)isoxazol-3-yl)methyl)-1,8-diazaspiro[4.5]decane-8-carboxylate]: on MAGL [1], the inhibition at 1 µM was > 75% and the IC50 was < 100 nM. For the same compound, the IC50 on MAGL [2] (setting [6]) is < 100 nM. Besides, on MAGL [3], the “MAGL % Inhibition at 5 mg/kg (Mouse)” value is recorded as “### (% inhibition is greater than or equal to 75%)”.

In the case of `O=C(OC(C(F)(F)F)C(F)(F)F)N1CCC2(CCCN2Cc2cc3cc(Cl)ccc3s2)CC1` [Example 40, 1,1,1,3,3,3-Hexafluoropropan-2-yl 1-((5-chlorobenzo[b]thiophen-2-yl)methyl)-1,8-diazaspiro[4.5] decane-8-carboxylate], at MAGL [1], the inhibition at 1 µM is > 75% and the IC50 is < 100 nM. Further, on MAGL [2] (setting [6]), the IC50 is < 100 nM. Further, the “MAGL % Inhibition at 5 mg/kg (Mouse)” value on MAGL [3] is given as “### (% inhibition is greater than or equal to 75%)”.

Take `Cc1ccc2nc(Cl)c(CN3CCCC34CCN(C(=O)OC(C(F)(F)F)C(F)(F)F)CC4)cc2c1` [Example 49, 1,1,1,3,3,3-Hexafluoropropan-2-yl 1-((2-chloro-6-methylquinolin-3-yl)methyl)-1,8-diazaspiro[4.5] decane-8-carboxylate]: on MAGL [1], the inhibition at 1 µM was > 75% and the IC50 is < 100 nM. Besides, on MAGL [2] (setting [6]), the IC50 is < 100 nM. Also, the “MAGL % Inhibition at 5 mg/kg (Mouse)” value on MAGL [3] is listed as “### (% inhibition is greater than or equal to 75%)”.

For `O=C(OC(C(F)(F)F)C(F)(F)F)N1CCC2(CCCN2Cc2ccc3cc(F)ccc3n2)CC1` [Example 56, 1,1,1,3,3,3-Hexafluoropropan-2-yl 1-((6-fluoroquinolin-2-yl)methyl)-1,8-diazaspiro[4.5] decane-8-carboxylate], at MAGL [1], the inhibition at 1 µM is > 75% and the IC50 is < 100 nM. In addition, the IC50 at MAGL [2] (setting [6]) was < 100 nM. Further, the “MAGL % Inhibition at 5 mg/kg (Mouse)” value on MAGL [3] is listed as “### (% inhibition is greater than or equal to 75%)”.

Take `CC(C)N1CCn2cc(C(=O)NC3(C)CCN(C(=O)OC(C(F)(F)F)C(F)(F)F)CC3)nc2C1` [Example 182, 1,1,1,3,3,3-Hexafluoropropan-2-yl 4-(7-isopropyl-5,6,7,8-tetrahydroimidazo[1,2-a]pyrazine-2-carboxamido)-4-methylpiperidine-1-carboxylate]: the inhibition at 1 µM on MAGL [2] (setting [4]) and at MAGL [2] (setting [5]) was > 75% throughout. For the same compound, the IC50 at MAGL [2] (setting [6]) was < 100 nM. At MAGL [3], the “MAGL % Inhibition at 5 mg/kg (Mouse)” value is reported as “### (% inhibition is greater than or equal to 75%)”.

In the case of `CC(C)n1cc(CN2CCCC23CCN(C(=O)OC(C(F)(F)F)C(F)(F)F)CC3)c(-c2ccccc2Cl)n1` [Example 222, 1,1,1,3,3,3-Hexafluoropropan-2-yl 1-((3-(2-chlorophenyl)-1-isopropyl-1H-pyrazol-4-yl)methyl)-1,8-diazaspiro[4.5]decane-8-carboxylate], on MAGL [1], the inhibition at 1 µM is > 75% and the IC50 was < 100 nM. Also, the “MAGL % Inhibition at 5 mg/kg (Mouse)” value on MAGL [3] is “### (% inhibition is greater than or equal to 75%)”.

Regarding `O=C(OC(C(F)(F)F)C(F)(F)F)N1CCC2(CCCN2Cc2cc3ccccc3s2)CC1` [Example 223, 1,1,1,3,3,3-Hexafluoropropan-2-yl 1-(benzo[b]thiophen-2-ylmethyl)-1,8-diazaspiro[4.5] decane-8-carboxylate], on MAGL [1], the inhibition at 1 µM is > 75% and the IC50 is < 100 nM. In addition, the “MAGL % Inhibition at 5 mg/kg (Mouse)” value on MAGL [3] was “### (% inhibition is greater than or equal to 75%)”.

On to `O=C(OC(C(F)(F)F)C(F)(F)F)N1CCC2(CCCN2Cc2csc(-c3ccccc3)n2)CC1` [Example 227, 1,1,1,3,3,3-Hexafluoropropan-2-yl 1-((2-phenylthiazol-4-yl)methyl)-1,8-diazaspiro[4.5]decane-8-carboxylate], for which, on MAGL [1], the inhibition at 1 µM is > 75% and the IC50 was < 100 nM. At MAGL [3], the “MAGL % Inhibition at 5 mg/kg (Mouse)” value is listed as “### (% inhibition is greater than or equal to 75%)”.
